According to patent US7423054B2, “Therapeutic pyrazolo[3,4-b]pyridines and indazoles” (Warner Lambert Company LLC, priority 2004, dated 2008):
Counter-ions that a name gives are not always drawn.

Tests used:
[1] = target: T1, human norepinephrine transporter (hNET) (Homo sapiens, UniProt P23975); experiment: hNET receptor binding ([125I]-RTI-55 displacement, membranes of transfected HEK-293 cells); conditions: HEK-293 membranes, Ki from IC50 by Cheng-Prusoff, read-out: NET Ki
T1 construct: expressed in transfected cells; host or cells: HEK-293 cells (membrane preparation)
Source text: (§1) The ability of the compounds of the present invention to inhibit a norepinephrine transporter and/or a serotonin transporter can be determined using conventional radioligand receptor transport assays. The receptors can be heterologously expressed in cell lines and experiments conducted in membrane preparations from the cell lines that express a norepinephrine transporter and/or a serotonin transporter.
(§2) Cell pastes of HEK-293 cells transfected with a human norepinephrine transporter cDNA were prepared. The cell pastes were resuspended in 400 to 700 ml of Krebs-HEPES assay buffer (25 mM HEPES, 122 mM NaCl, 3 mM KCl, 1.2 mM MgSO4, 1.3 mM CaCl2, and 11 mM glucose, pH 7.4) with a Polytron homogenizer at setting 7 for 30 seconds. Aliquots of membranes (5 mg/ml protein) were stored in liquid nitrogen until used.
The binding assay was set up in Beckman deep-well polypropylene plates with a total volume of 250 μl containing: test compound (10^−5M to 10^−12M), cell membranes, and 50 pM [^125I]-RTI-55 (Perkin Elmer, NEX-272; specific activity 2200 Ci/mmol). The reaction was incubated by gentle agitation for 90 minutes at room temperature and was terminated by filtration through Whatman GF/C filter plates using a Brandel 96-well plate harvester. Scintillation fluid (100 μl) was added to each well, and bound [^125I]-RTI-55 was determined using a Wallac Trilux Beta Plate Counter. Test compounds were run in duplicate, and specific binding was defined as the difference between binding in the presence and absence of 10 μM desipramine.
Excel and GraphPad Prism software were used for data calculation and analysis. IC50 values were converted to Ki values using the Cheng-Prusoff equation. The Ki values (nM) for the hNET are reported below in Table 11.

[2] = target: T2, human serotonin transporter (hSERT) (Homo sapiens, UniProt P31645); experiment: hSERT receptor binding ([125I]-RTI-55 displacement, membranes of transfected HEK-293 cells); conditions: HEK-293 membranes, Ki from IC50 by Cheng-Prusoff, read-out: SERT Ki
T2 construct: expressed in transfected cells; host or cells: HEK-293 cells (membrane preparation)
Experimental: as §1
as §2, with “serotonin” for “norepinephrine”, “Setting” for “setting”, “(˜2.5” for “(5”
Assays were set up in FlashPlates pre-coated with 0.1% PEI in a total volume of 250 μl containing: test compound (10^−5M to 10^−12M), cell membranes, and 50 pM [^125I]-RTI-55 (Perkin Elmer, NEX-272; specific activity 2200 Ci/mmol). The reaction was incubated and gently agitated for 90 minutes at room temperature, and terminated by removal of assay volume. Plates were covered, and bound [^125I]-RTI-55 was determined using a Wallac Trilux Beta Plate Counter. Test compounds were run in duplicate, and specific binding was defined as the difference between binding in the presence and absence of 10 μM citalopram.
Excel and GraphPad Prism software were used for data calculation and analysis. IC50 values were converted to Ki values using the Cheng-Prusoff equation. The Ki values (nM) for the hSERT are reported below in Table 11: […]

T2 sequence (P31645 whole entry): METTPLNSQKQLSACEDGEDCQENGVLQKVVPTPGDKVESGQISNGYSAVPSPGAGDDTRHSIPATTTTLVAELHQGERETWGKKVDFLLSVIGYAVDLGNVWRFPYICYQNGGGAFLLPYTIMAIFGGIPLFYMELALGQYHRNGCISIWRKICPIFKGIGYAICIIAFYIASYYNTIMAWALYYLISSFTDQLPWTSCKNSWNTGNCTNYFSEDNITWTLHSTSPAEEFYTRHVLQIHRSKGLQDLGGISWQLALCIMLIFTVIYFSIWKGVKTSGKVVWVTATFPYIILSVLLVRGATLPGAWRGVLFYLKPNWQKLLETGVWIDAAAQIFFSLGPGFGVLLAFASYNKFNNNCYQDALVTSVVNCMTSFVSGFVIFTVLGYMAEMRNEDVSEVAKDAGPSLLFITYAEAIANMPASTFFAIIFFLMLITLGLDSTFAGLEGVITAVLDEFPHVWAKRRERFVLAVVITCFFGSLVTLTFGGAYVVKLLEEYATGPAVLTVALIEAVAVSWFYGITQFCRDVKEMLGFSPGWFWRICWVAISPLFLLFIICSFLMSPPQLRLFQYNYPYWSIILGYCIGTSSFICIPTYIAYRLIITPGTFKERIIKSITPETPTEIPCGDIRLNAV
T1 sequence (P23975 whole entry): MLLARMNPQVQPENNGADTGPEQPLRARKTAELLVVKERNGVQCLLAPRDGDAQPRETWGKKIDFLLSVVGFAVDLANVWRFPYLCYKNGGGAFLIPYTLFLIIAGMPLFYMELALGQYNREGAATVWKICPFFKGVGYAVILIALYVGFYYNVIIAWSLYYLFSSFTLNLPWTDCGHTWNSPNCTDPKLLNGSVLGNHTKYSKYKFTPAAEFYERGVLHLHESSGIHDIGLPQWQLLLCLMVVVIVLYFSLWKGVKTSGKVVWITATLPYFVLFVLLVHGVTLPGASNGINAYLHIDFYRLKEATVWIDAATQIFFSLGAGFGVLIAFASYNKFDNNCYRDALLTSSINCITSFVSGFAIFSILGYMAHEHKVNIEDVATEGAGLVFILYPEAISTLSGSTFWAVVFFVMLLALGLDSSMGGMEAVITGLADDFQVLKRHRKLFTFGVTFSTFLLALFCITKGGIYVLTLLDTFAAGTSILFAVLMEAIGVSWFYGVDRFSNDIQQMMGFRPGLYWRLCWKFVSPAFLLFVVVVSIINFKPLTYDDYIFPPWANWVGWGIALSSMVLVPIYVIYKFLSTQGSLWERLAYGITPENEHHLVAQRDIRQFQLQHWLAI

| Compound | Ki [1] [µM] | Ki [2] [µM] |
| --- | --- | --- |
| Fc1ccc(F)c(-n2nc(OC[C@H]3CCCNC3)c3ccccc32)c1 [Example 38, (S)-1-(2,5-Difluoro-phenyl)-3-(piperidin-3-ylmethoxy)-1H-indazole hydrochloride] | 0.00609 | 0.199 |
| Fc1ccc2c(c1)c(OC[C@@H]1CNCCO1)nn2-c1ccccc1F [Example 46, (S)-(+)-5-Fluoro-1-(2-fluorophenyl)-3-(morpholin-2-ylmethoxy)-1H-indazole maleate] | 0.0057 | 0.413 |
| Fc1ccc(-n2nc(OC[C@H]3CCCNC3)c3cc(F)ccc32)c(F)c1 [Example 49, (S)-(−)-1-(2,4-Difluorophenyl)-5-fluoro-3-(piperidin-3-ylmethoxy)-1H-indazole hydrochloride] | 0.0985 | 0.0205 |
| Fc1ccc2c(c1)c(OC[C@@H]1CNCCO1)nn2-c1c(F)cccc1F [Example 50, (S)-1-(2,6-Difluoro-phenyl)-5-fluoro-3-(morpholin-2-ylmethoxy)-1H-indazole hydrochloride] | 0.0052 | 1.14 |
| CC1(COc2nn(-c3ccccc3F)c3ccc(F)cc23)CCCNC1 (stereo not shown) [Example 52] | 0.0357 | 0.0454 |
| CC1(COc2nn(-c3ccccc3F)c3ccccc23)CCCNC1 (stereo not shown) [Example 53, 1-(2-Fluoro-phenyl)-3-(3-methyl-piperidin-3-ylmethoxy)-1H-indazole hydrogen chloride] | 0.0541 | 0.146 |
| Fc1ccc2c(c1)c(OC[C@@H]1CCCNC1)nn2-c1ccccc1F [Example 55, (R)-5-Fluoro-1-(2-fluoro-phenyl)-3-(piperidin-3-ylmethoxy)-1H-indazole maleate] | 0.0712 | 0.126 |
| Fc1ccc(F)c(-n2nc(OC3CCNCC3)c3cc(Cl)ccc32)c1 [Example 58, 5-Chloro-1-(2,5-difluoro-phenyl)-3-(piperidin-4-yloxy)-1H-indazole hydrochloride] | 0.056 | 0.134 |
| Cc1cccc2c1c(OC1CCNCC1)nn2-c1ccccc1 [Example 62, 4-Methyl-1-phenyl-3-(piperidin-4-yloxy)-1H-indazole hydrochloride] | 0.495 | 0.314 |
| Clc1ccc2c(OC3CCNCC3)nn(-c3ccccc3)c2c1 [Example 64, 6-Chloro-1-phenyl-3-(piperidin-4-yloxy)-1H-indazole hydrochloride] | 0.512 | 0.272 |
| Cc1ccc2c(OC3CCNCC3)nn(-c3ccccc3)c2c1 [Example 71, 6-Methyl-1-phenyl-3-(piperidin-4-yloxy)-1H-indazole hydrochloride] | 0.0955 | 0.0205 |
| Cc1ccc2c(OC3CCNCC3)nn(-c3ccccc3F)c2c1 [Example 72, 1-(2-Fluoro-phenyl)-6-methyl-3-(piperidin-4-yloxy)-1H-indazole hydrochloride] | 0.0274 | 0.00976 |
| Fc1ccccc1-n1nc(OCC2CCCNC2)c2cc(Cl)ccc21 (stereo not shown) [Example 73, 5-Chloro-1-(2-fluoro-phenyl)-3-(piperidin-3-ylmethoxy)-1H-indazole hydrochloride] | 0.0293 | 0.304 |
| Cc1ccc2c(OCC3CCCNC3)nn(-c3ccccc3F)c2c1 (stereo not shown) [Example 74, 1-(2-Fluoro-phenyl)-6-methyl-3-(piperidin-3-ylmethoxy)-1H-indazole hydrochloride] | 0.0605 | 0.792 |
| Fc1cc2c(OC3CCNCC3)nn(-c3ccccc3F)c2cc1F [Example 75, 5,6-Difluoro-1-(2-fluoro-phenyl)-3-(piperidin-4-yloxy)-1H-indazole hydrochloride] | 0.0364 | 0.0398 |
| Fc1cccc(-n2nc(OC3CCNCC3)c3cc(F)ccc32)c1 [Example 77, 5-Fluoro-1-(3-fluoro-phenyl)-3-(piperidin-4-yloxy)-1H-indazole hydrochloride] | 0.0248 | 0.0495 |
| Fc1cccc(-n2nc(OC3CCNCC3)c3c(F)cccc32)c1 [Example 81, 4-Fluoro-1(3-fluoro-phenyl)-3-(piperidin-4-yloxy)-1H-indazole hydrochloride] | 0.0498 | 0.449 |

Next, values leading:

| Ki [1] [µM] | Ki [2] [µM] | Compound |
| --- | --- | --- |
| 0.00957 | 0.0344 | Fc1ccc(F)c(-n2nc(OC3CCNCC3)c3cc(F)ccc32)c1 [Example 39, 1-(2,5-Difluoro-phenyl)-5-fluoro-3-(piperidin-4-yloxy)-1H-indazole hydrochloride] |
| 0.00502 | 0.0307 | Fc1ccc(F)c(-n2nc(OC[C@@H]3CCNC3)c3cc(F)ccc32)c1 [Example 40, (R)-1-(2,5-Difluoro-phenyl)-5-fluoro-3-(pyrrolidin-3-ylmethoxy)-1H-indazole hydrochloride] |
| 0.299 | 0.0797 | Clc1ccc(-n2nc(OC3CCNCC3)c3ccccc32)cc1 [Example 41, 1-(4-Chloro-phenyl)-3-(piperidin-4-yloxy)-1H-indazole hydrochloride] |
| 0.1 | 0.365 | c1ccc(-n2nc(OC[C@H]3CCCNC3)c3ccccc32)nc1 [Example 44, (S)-(−)-3-(Piperidin-3-ylmethoxy)-1-pyridin-2-yl-1H-indazole maleate] |
| 0.274 | 0.0285 | CC1(COc2nn(-c3ccccc3F)c3ccc(F)cc23)CCNCC1 [Example 54, 5-Fluoro-1-(2-fluoro-phenyl)-3-(4-methyl-piperdin-4-ylmethoxy)-1H-indazole hydrogen chloride] |
| 0.0691 | 0.0327 | Cc1cccc2c(OC3CCNCC3)nn(-c3ccccc3)c12 [Example 59, 7-Methyl-1-phenyl-3-(piperidin-4-yloxy)-1H-indazole hydrochloride] |
| 0.221 | 0.0767 | COc1cccc2c(OC3CCNCC3)nn(-c3ccccc3)c12 [Example 60, 7-Methoxy-1-phenyl-3-(piperidin-4-yloxy)-1H-indazole hydrochloride] |
| 0.0204 | 0.0217 | Clc1cccc2c(OC3CCNCC3)nn(-c3ccccc3)c12 [Example 61, 7-Chloro-1-phenyl-3-(piperidin-4-yloxy)-1H-indazole hydrochloride] |
| 0.0395 | 0.0194 | Fc1ccc2c(OC3CCNCC3)nn(-c3ccccc3F)c2c1 [Example 63, 6-Fluoro-1-(2-fluoro-phenyl)-3-(piperidin-4-yloxy)-1H-indazole hydrochloride] |
| 4.33 | 0.0812 | Fc1ccccc1-n1nc(OC2CCNCC2)c2cccc(C(F)(F)F)c21 [Example 65, 1-(2-fluorophenyl)-3-(piperidin-4-yloxy)-7-(trifluoromethyl)-1H-indazole hydrochloride] |
| 0.0404 | 0.158 | Fc1cc2c(OCC3CCCNC3)nn(-c3ccccc3F)c2cc1F (stereo not shown) [Example 76, 5,6-Difluoro-1-(2-fluoro-phenyl)-3-(piperidin-3-ylmethoxy)-1H-indazole hydrochloride] |
| 0.0102 | 0.0399 | Fc1cccc(-n2nc(OC[C@H]3CCCNC3)c3cc(F)ccc32)c1 [Example 78, (S)-5-Fluoro-1-(3-fluoro-phenyl)-3-(piperidin-3-ylmethoxy)-1H-indazole hydrochloride] |
| 0.0328 | 0.0237 | Fc1ccc(-n2nc(OC3CCNCC3)c3cc(F)ccc32)cc1 [Example 79, 5-Fluoro-1-(4-fluoro-phenyl)-3-(piperidin-4-yloxy)-1H-indazole hydrochloride] |
| 0.015 | 0.0239 | Fc1ccc(-n2nc(OC[C@H]3CCCNC3)c3cc(F)ccc32)cc1 [Example 80, (S)-5-Fluoro-1-(4-fluoro-phenyl)-3-(piperidin-3-ylmethoxy)-1H-indazole hydrochloride] |
| 0.0232 | 0.635 | Fc1cccc(-n2nc(OC[C@H]3CCCNC3)c3c(F)cccc32)c1 [Example 82, (S)-4-Fluoro-1-(3-fluoro-phenyl)-3-(piperidin-3-ylmethoxy)-1H-indazole hydrochloride] |
